Source: patent US20210121527A1, “METHODS OF TREATING MINIMAL RESIDUAL CANCER” (ICAHN SCHOOL OF MEDICINE AT MOUNT SINAI, priority 2018, published 2021)

Experiments:
Test in all cases: DiscoveRx scanMAX kinase profiling
Assay type in all cases: binding
[1] = target: T1, AKT1 (Homo sapiens, UniProt P31749); conditions: read-out: Direct inhibitory activity on AKT1 (KINOMEscan)
T1 construct: purchased DiscoverX (San Diego, Calif.) scanMAX
Procedure: (§1) Biochemical assays: Recombinant human EIF2AK3 (PERK) catalytic domain (amino acids 536-1116; Cat # PV5107), GFP-eIF2a (Cat # PV4809) substrate, and Terbium-labelled phospho-eIF2a antibody (Cat # PR8956B) were purchased from Invitrogen (Carlsbad, Calif.). HIS-SUMO-GCN2 catalytic domain (amino acids 584-1019) was expressed and purified from E. coli. TR-FRET kinase assays were performed in the absence or presence of inhibitors in a reaction buffer consisting of 50 mM HEPES, pH 7.5, 10 mMMgCl2, 1.0 mM EGTA, and 0.01% Brij-35, and 100-200 nM GFP-eIF2a substrate. […] Following the addition of test compound, the reaction was initiated by addition of enzyme and incubated at room temperature for 45 minutes. The reaction was stopped by addition of EDTA to a final concentration of 10 mM and Terbium-labelled phospho-eIF2α antibody was added at a final concentration of 2 nM and incubated for 90 minutes. The resulting fluorescence was monitored in an EnVison® Multilabel reader (PerkinElmer, Waltham, Mass.). TR-FRET ratios and the resulting IC50 values were determined from the fitted inhibition curves. Biochemical specificity profiling was performed at Cerep (Redmond, Wash.) and DiscoverX (San Diego, Calif.).

[2] = target: T2, AKT2 (Homo sapiens, UniProt P31751); conditions: read-out: Direct inhibitory activity on AKT2 (KINOMEscan)
T2 construct: purchased DiscoverX (San Diego, Calif.) scanMAX
T2 sequence (P31751 whole entry): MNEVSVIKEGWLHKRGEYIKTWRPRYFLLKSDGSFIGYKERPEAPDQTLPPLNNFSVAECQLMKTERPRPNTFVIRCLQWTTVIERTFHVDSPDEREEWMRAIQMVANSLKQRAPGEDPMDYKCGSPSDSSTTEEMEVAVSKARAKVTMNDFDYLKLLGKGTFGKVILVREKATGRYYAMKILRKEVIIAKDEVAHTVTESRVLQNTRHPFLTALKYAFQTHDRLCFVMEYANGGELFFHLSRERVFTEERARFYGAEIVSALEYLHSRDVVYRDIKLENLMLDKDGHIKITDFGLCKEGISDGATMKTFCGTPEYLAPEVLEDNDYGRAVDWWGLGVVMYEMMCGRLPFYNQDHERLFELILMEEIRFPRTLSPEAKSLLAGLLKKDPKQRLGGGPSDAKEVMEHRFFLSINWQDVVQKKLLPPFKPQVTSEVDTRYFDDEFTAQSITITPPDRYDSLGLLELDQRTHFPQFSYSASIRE
Procedure: as §1

[3] = target: T3, CSK (Homo sapiens, UniProt P41240); conditions: read-out: Direct inhibitory activity on CSK (KINOMEscan)
T3 construct: purchased DiscoverX (San Diego, Calif.)
T3 sequence (P41240 whole entry): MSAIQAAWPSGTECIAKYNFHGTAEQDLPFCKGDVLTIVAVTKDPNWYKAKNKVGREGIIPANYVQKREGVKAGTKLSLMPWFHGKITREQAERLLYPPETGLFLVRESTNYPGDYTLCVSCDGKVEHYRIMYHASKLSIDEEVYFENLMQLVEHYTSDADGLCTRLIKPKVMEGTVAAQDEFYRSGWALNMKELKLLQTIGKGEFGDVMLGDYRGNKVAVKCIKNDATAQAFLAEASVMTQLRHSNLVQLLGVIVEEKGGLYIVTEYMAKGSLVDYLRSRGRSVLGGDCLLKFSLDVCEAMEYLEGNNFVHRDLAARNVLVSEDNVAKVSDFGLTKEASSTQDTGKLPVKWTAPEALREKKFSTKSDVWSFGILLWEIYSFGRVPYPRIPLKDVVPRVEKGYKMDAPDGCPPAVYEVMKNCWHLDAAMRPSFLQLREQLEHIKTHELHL
Procedure: as §1

[4] = target: T4, EGFR (Homo sapiens, UniProt P00533); conditions: read-out: Direct inhibitory activity on EGFR (KINOMEscan)
T4 construct: purchased DiscoverX (San Diego, Calif.) scanMAX
Procedure: as §1

[5] = target: T5, EIF2AK1 (Homo sapiens, UniProt Q9BQI3); conditions: read-out: Inhibition of EIF2AK1 (KINOMEscan)
T5 construct: purchased DiscoverX (San Diego, Calif.) scanMAX
Procedure: as §1

[6] = target: T6, ERBB2 (Homo sapiens, UniProt P04626); conditions: read-out: Direct inhibitory activity on ERBB2 (KINOMEscan)
T6 construct: purchased DiscoverX (San Diego, Calif.) scanMAX
Procedure: as §1

[7] = target: T7, ERBB3 (Homo sapiens, UniProt P21860); conditions: read-out: Direct inhibitory activity on ERBB3 (KINOMEscan)
T7 construct: purchased DiscoverX (San Diego, Calif.) scanMAX
Procedure: as §1

[8] = target: T8, ERBB4 (Homo sapiens, UniProt Q15303); conditions: read-out: Direct inhibitory activity on ERBB4 (KINOMEscan)
T8 construct: purchased DiscoverX (San Diego, Calif.) scanMAX
Procedure: as §1

[9] = target: T9, ERK1 (MAPK3) (Homo sapiens, UniProt P27361); conditions: read-out: Direct inhibitory activity on ERK1 (KINOMEscan)
T9 construct: purchased DiscoverX (San Diego, Calif.) scanMAX
T9 sequence (P27361 whole entry): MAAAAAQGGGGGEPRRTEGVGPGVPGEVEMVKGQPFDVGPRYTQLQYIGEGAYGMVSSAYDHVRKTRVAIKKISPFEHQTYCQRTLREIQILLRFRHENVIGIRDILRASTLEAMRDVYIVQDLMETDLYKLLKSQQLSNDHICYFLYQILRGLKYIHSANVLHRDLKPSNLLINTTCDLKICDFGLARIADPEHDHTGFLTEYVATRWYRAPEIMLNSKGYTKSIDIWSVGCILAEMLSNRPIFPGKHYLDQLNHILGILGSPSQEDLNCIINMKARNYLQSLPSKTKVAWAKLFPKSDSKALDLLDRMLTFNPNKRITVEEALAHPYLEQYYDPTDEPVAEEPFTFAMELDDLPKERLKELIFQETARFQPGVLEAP
Procedure: as §1

[10] = target: T10, ERK2 (MAPK1) (Homo sapiens, UniProt P28482); conditions: read-out: Direct inhibitory activity on ERK2 (KINOMEscan)
T10 construct: purchased DiscoverX (San Diego, Calif.) scanMAX
T10 sequence (P28482 whole entry): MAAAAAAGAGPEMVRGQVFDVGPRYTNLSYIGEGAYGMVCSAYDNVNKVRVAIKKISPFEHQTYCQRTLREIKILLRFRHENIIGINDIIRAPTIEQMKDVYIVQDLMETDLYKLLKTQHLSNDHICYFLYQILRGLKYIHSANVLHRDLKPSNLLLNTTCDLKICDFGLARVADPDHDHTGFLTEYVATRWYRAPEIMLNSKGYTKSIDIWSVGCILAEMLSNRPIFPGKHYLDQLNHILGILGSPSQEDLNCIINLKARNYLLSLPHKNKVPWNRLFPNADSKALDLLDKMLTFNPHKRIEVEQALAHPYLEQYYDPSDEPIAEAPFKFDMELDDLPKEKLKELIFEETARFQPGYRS
Procedure: as §1

[11] = target: T11, ERK3 (MAPK6) (Homo sapiens, UniProt Q16659); conditions: read-out: Direct inhibitory activity on ERK3 (KINOMEscan)
T11 construct: purchased DiscoverX (San Diego, Calif.) scanMAX
T11 sequence (Q16659 whole entry): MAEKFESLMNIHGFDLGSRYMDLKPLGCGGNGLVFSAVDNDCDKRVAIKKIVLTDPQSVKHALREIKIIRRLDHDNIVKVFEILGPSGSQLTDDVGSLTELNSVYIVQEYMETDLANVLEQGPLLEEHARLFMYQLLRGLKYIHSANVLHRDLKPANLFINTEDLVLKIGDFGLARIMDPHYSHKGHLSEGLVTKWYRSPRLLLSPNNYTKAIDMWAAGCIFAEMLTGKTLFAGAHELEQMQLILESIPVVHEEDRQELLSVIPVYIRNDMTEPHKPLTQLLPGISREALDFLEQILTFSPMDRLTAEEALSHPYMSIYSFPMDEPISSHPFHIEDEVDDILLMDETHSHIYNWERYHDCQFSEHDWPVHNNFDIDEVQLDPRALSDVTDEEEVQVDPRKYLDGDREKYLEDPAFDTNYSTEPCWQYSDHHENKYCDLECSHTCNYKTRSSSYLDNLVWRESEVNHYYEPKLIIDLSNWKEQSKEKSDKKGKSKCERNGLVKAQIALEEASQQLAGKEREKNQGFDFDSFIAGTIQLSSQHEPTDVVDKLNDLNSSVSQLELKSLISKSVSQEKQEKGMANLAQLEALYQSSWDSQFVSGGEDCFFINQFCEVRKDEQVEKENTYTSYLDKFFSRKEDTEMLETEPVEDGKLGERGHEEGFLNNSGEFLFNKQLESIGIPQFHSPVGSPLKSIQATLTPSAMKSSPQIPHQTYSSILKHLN
Procedure: as §1

[12] = target: T12, ERK4 (MAPK4) (Homo sapiens, UniProt P31152); conditions: read-out: Direct inhibitory activity on ERK4 (KINOMEscan)
T12 construct: purchased DiscoverX (San Diego, Calif.) scanMAX
Procedure: as §1

[13] = target: T13, PIK3C2B (Homo sapiens, UniProt O00750); conditions: read-out: Direct inhibitory activity on PIK3C2B (KINOMEscan)
T13 construct: purchased DiscoverX (San Diego, Calif.)
T13 sequence (O00750 whole entry): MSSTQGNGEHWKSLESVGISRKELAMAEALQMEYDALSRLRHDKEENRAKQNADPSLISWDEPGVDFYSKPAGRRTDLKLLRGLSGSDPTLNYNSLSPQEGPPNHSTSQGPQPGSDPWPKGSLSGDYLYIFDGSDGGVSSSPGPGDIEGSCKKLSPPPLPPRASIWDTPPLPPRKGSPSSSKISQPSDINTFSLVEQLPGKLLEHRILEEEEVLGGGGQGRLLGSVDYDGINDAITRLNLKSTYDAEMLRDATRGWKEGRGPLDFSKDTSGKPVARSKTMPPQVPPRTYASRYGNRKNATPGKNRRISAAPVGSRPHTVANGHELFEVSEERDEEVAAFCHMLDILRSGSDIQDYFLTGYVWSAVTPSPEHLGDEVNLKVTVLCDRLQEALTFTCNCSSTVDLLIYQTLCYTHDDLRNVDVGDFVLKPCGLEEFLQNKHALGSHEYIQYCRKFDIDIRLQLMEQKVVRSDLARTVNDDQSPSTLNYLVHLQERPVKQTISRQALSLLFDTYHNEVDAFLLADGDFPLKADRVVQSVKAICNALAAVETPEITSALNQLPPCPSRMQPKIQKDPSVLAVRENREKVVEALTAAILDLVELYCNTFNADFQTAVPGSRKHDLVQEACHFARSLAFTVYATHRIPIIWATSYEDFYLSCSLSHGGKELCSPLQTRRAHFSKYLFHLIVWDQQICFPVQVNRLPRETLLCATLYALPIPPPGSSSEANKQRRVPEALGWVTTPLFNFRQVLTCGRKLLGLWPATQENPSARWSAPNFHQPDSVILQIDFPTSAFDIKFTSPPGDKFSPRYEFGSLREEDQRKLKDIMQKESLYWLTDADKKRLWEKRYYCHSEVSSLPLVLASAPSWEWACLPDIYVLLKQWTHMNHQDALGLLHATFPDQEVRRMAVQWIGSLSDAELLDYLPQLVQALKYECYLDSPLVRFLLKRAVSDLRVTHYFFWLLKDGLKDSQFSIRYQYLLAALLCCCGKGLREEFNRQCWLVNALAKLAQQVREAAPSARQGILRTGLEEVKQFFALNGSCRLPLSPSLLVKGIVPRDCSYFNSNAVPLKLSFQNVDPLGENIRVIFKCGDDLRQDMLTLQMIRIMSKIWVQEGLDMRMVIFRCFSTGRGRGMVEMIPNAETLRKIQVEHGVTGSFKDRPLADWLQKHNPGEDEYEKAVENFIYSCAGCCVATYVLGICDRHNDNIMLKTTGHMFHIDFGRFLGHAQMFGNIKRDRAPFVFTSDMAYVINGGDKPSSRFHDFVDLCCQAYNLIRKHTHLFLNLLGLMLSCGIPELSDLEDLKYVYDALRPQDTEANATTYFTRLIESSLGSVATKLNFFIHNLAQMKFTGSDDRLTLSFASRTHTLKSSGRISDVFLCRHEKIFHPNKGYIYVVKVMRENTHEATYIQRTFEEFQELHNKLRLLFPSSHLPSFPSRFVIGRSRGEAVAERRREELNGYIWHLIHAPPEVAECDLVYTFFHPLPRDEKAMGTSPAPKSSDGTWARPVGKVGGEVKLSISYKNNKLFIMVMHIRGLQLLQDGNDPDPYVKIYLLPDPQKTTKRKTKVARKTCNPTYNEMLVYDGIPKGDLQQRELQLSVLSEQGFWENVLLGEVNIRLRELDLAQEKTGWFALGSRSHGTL
Procedure: as §1

[14] = target: T14, PIK3CA (Homo sapiens, UniProt P42336); conditions: read-out: Direct inhibitory activity on PIK3CA (KINOMEscan)
T14 construct: purchased DiscoverX (San Diego, Calif.)
Procedure: as §1

[15] = target: T15, PIK3CG (Homo sapiens, UniProt P48736); conditions: read-out: Direct inhibitory activity on PIK3CG (KINOMEscan)
T15 construct: purchased DiscoverX (San Diego, Calif.)
Procedure: as §1

[16] = target: T16, SRC (Homo sapiens, UniProt P12931); conditions: read-out: Direct inhibitory activity on SRC (KINOMEscan)
T16 construct: purchased DiscoverX (San Diego, Calif.) scanMAX
T16 sequence (P12931 whole entry): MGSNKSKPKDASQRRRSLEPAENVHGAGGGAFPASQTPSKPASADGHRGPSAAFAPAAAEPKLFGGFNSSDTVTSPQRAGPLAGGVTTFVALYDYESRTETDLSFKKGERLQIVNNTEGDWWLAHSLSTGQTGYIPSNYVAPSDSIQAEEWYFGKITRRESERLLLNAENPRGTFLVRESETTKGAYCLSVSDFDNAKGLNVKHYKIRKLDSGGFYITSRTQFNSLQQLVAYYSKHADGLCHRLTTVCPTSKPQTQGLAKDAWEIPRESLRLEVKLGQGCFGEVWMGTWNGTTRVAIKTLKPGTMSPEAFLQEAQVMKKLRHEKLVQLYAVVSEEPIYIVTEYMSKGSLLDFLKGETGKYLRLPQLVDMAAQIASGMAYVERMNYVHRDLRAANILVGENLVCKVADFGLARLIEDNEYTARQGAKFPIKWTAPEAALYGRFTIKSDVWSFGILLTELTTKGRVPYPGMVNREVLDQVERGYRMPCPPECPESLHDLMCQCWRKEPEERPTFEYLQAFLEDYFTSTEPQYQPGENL
Procedure: as §1

[17] = target: T17, SYK (Homo sapiens, UniProt P43405); conditions: read-out: Direct inhibitory activity on SYK (KINOMEscan)
T17 construct: purchased DiscoverX (San Diego, Calif.) scanMAX
Procedure: as §1

T1 sequence (P31749 whole entry): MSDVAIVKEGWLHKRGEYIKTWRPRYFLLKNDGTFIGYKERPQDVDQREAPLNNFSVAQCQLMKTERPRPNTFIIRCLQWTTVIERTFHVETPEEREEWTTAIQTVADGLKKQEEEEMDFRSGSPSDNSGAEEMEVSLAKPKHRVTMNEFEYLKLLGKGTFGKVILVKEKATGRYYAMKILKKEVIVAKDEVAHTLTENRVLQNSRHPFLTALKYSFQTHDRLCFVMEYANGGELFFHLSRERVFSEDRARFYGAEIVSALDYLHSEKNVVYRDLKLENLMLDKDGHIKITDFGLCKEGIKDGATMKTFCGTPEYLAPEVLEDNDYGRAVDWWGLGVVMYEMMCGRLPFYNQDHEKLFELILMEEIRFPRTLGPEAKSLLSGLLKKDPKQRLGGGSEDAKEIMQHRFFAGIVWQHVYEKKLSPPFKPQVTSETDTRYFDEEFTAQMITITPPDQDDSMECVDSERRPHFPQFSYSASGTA

For `Cc1cccc(CC(=O)N2CCc3c2ccc(-c2cn(C)c4ncnc(N)c24)c3F)n1` [GSK2656157, reference compound], the inhibition at 0.2 µM [1] was 14%, the inhibition at 2 µM [1] was 32% and the inhibition at 20 µM [1] was 0%. For the same compound, the inhibition at 0.2 µM [2] was 0%, the inhibition at 2 µM [2] was 4% and the inhibition at 20 µM [2] was 8%. The inhibition at 0.2 µM [3] was 0%, the inhibition at 2 µM [3] was 33% and the inhibition at 20 µM [3] was 64%. It also gave an inhibition at 0.2 µM [4] of 18%, an inhibition at 2 µM [4] of 16% and an inhibition at 20 µM [4] of 50%. For the same compound, the inhibition at 0.2 µM [5] was 8%, the inhibition at 2 µM [5] was 77% and the inhibition at 20 µM [5] was 95%. For the same compound, the inhibition at 0.2 µM [6] was 57%, the inhibition at 2 µM [6] was 64% and the inhibition at 20 µM [6] was 97%. For the same compound, the inhibition at 0.2 µM [7] was 40%, the inhibition at 2 µM [7] was 22% and the inhibition at 20 µM [7] was 53%. For the same compound, the inhibition at 0.2 µM [8] was 0%, the inhibition at 2 µM [8] was 0% and the inhibition at 20 µM [8] was 0%. The inhibition at 0.2 µM [9] was 0%, the inhibition at 2 µM [9] was 17% and the inhibition at 20 µM [9] was 0%. The inhibition at 0.2 µM [10] was 0%, the inhibition at 2 µM [10] was 0% and the inhibition at 20 µM [10] was 0%. It also gave an inhibition at 0.2 µM [11] of 0%, an inhibition at 2 µM [11] of 16% and an inhibition at 20 µM [11] of 0%. It also gave an inhibition at 0.2 µM [12] of 0%, an inhibition at 2 µM [12] of 35% and an inhibition at 20 µM [12] of 0%. For the same compound, the inhibition at 0.2 µM [13] was 0%, the inhibition at 2 µM [13] was 9% and the inhibition at 20 µM [13] was 22%. For the same compound, the inhibition at 0.2 µM [14] was 0%, the inhibition at 2 µM [14] was 8% and the inhibition at 20 µM [14] was 0%. It also gave an inhibition at 0.2 µM [15] of 36%, an inhibition at 2 µM [15] of 47% and an inhibition at 20 µM [15] of 50%. The inhibition at 0.2 µM [16] was 10%, the inhibition at 2 µM [16] was 45% and the inhibition at 20 µM [16] was 69%. For the same compound, the inhibition at 0.2 µM [17] was 0%, the inhibition at 2 µM [17] was 12% and the inhibition at 20 µM [17] was 23%.

In the case of `Cc1cc(NC(=O)[C@H](O)c2cc(F)cc(F)c2)ccc1-c1cnc(N)c(C(=O)NC(C)C)c1` [LY4, 2-amino-5-[4-[[(2R)-2-(3,5-difluorophenyl)-2-hydroxy-acetyl]amino]-2-methyl-phenyl]-N-isopropyl-pyridine-3-carboxamide], the inhibition at 0.2 µM [1] is reported as 0%, the inhibition at 2 µM [1] is reported as 5% and the inhibition at 20 µM [1] is reported as 0%. The inhibition at 0.2 µM [2] was 0%, the inhibition at 2 µM [2] was 0% and the inhibition at 20 µM [2] was 0%. It also gave an inhibition at 0.2 µM [3] of 31%, an inhibition at 2 µM [3] of 0% and an inhibition at 20 µM [3] of 14%. For the same compound, the inhibition at 0.2 µM [4] was 30%, the inhibition at 2 µM [4] was 23% and the inhibition at 20 µM [4] was 16%. The inhibition at 0.2 µM [5] was 0%, the inhibition at 2 µM [5] was 0% and the inhibition at 20 µM [5] was 35%. The inhibition at 0.2 µM [6] was 0%, the inhibition at 2 µM [6] was 0% and the inhibition at 20 µM [6] was 0%. The inhibition at 0.2 µM [7] was 0%, the inhibition at 2 µM [7] was 0% and the inhibition at 20 µM [7] was 0%. It also gave an inhibition at 0.2 µM [8] of 0%, an inhibition at 2 µM [8] of 0% and an inhibition at 20 µM [8] of 4%. For the same compound, the inhibition at 0.2 µM [9] was 2%, the inhibition at 2 µM [9] was 18% and the inhibition at 20 µM [9] was 0%. It also gave an inhibition at 0.2 µM [10] of 0%, an inhibition at 2 µM [10] of 0% and an inhibition at 20 µM [10] of 1%. The inhibition at 0.2 µM [11] was 0%, the inhibition at 2 µM [11] was 32% and the inhibition at 20 µM [11] was 3%. For the same compound, the inhibition at 0.2 µM [12] was 0%, the inhibition at 2 µM [12] was 0% and the inhibition at 20 µM [12] was 0%. The inhibition at 0.2 µM [13] was 40%, the inhibition at 2 µM [13] was 39% and the inhibition at 20 µM [13] was 94%. It also gave an inhibition at 0.2 µM [14] of 9%, an inhibition at 2 µM [14] of 0% and an inhibition at 20 µM [14] of 8%. For the same compound, the inhibition at 0.2 µM [15] was 24%, the inhibition at 2 µM [15] was 0% and the inhibition at 20 µM [15] was 26%. For the same compound, the inhibition at 0.2 µM [16] was 0%, the inhibition at 2 µM [16] was 1% and the inhibition at 20 µM [16] was 11%. For the same compound, the inhibition at 0.2 µM [17] was 0%, the inhibition at 2 µM [17] was 0% and the inhibition at 20 µM [17] was 0%.
